Source: patent US20110144014A1, “CYTOKINE RECEPTOR MODULATORS AND USES THEREOF” (CENTRE HOSPITALIER UNIVERSITAIRE SAINTE-JUSTINE, priority 2005, published 2011)
Where a SMILES comes first, the peptide text is derived from it. [ ]: non-standard residue; d: D form.

Assays:
IL-1R/IL-1RacP [1] = test: IL-1β-induced cGMP production in brain tissues ex vivo
Method: For these newly derived peptides, ex vivo experiments were then conducted. Brain tissues were incubated with the peptides and IL-1β and cGMP was measured with a commercial kit (Amersham Bioscience, cGMP assay biotrack™ system). API-101.10 already inhibited 85% of IL-1β-induced cGMP production (10^−6M) and API-101.103 and 101.106 inhibited more than 90% of cGMP production. Thus, removal of the negative charge of the glutamate and removal of the threonine can improve the potency of the antagonist.

IL-1R/IL-1RacP [2] = test: IL-1-induced PGE2 synthesis in endothelial cells; assay type: cell-based, porcine
Method: Efficiencies and inhibitory activities of the mutated peptides were determined by measuring the inhibition of IL-1-induced PGE2 synthesis. […] All peptides were tested at concentration 10^−6M.
The arginine of API-101.10 (SEQ ID NO: 10) was replaced by citrulline—to change from a guanidine to a urea group near the N-terminal. Other mutations (e.g. E to Q in API-101.102 and API-101.103) and a truncated peptide at the C-terminal (API-101.108) were also performed to improve the potency and the efficacy of the peptides. Measurement of PGE2 was performed with piglet brain microvessel endothelial cells and WI-38 human fibroblasts. Some of the mutations were advantageous and gave major increases in potency.
IL-1-induced PGE2 synthesis assay on endothelial cells was used as a screening assay for the peptidomimetics.

IL-1R = biological target: T1, IL-1R (Rattus norvegicus, UniProt Q02955); test: Cross-linking and radioligand binding of I125-API-101.10 on thymocytes
T1 construct: Thymocytes freshly isolated from rat thymus; endogenous in cells; host or cells: freshly isolated rat thymocytes
T1 sequence (Q02955 20-576): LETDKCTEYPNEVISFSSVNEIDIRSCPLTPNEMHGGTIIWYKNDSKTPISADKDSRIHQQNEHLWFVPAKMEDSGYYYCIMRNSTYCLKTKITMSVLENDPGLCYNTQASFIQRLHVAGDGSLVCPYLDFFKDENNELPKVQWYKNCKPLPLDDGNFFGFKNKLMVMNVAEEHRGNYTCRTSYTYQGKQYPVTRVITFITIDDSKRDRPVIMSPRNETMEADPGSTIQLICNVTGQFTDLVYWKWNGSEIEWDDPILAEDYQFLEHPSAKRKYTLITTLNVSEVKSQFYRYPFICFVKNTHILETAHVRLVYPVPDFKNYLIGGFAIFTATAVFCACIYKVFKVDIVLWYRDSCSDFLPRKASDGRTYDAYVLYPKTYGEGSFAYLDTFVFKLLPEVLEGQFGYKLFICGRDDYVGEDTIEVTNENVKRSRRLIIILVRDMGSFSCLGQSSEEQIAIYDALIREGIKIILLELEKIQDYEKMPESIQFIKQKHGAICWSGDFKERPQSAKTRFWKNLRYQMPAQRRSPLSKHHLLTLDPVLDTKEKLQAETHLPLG
T1 sequence (Q63621 21-570 partner): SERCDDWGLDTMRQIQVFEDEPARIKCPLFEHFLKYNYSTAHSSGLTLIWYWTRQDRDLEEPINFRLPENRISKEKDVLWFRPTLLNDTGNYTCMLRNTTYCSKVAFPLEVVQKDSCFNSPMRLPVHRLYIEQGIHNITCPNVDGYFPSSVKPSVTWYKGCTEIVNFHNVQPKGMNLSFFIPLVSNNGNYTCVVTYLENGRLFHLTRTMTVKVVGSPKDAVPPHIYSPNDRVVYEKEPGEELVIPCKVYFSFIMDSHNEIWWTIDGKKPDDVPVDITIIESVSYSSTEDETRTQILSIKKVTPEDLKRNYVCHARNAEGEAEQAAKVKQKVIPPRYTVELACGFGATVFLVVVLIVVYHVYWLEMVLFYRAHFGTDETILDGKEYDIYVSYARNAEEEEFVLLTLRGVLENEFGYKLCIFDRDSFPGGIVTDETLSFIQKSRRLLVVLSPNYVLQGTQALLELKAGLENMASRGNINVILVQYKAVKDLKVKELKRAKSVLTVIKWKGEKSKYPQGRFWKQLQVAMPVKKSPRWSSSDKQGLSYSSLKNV
Description: Thymocytes freshly isolated from rat thymus were resuspended at a concentration of 10^7 cell/ml in PBS (phosphate buffered saline) buffer pH 8.0 (reaction buffer) and washed three times with ice-cold reaction buffer. The reaction mixture for each sample contained: 10^6 cells and 10^7 cpm of 125API-101.10. One sample also contained […] of cold API-101.10 peptide. In the negative control HEK-293 cells containing a negligible amount of IL-1R were used. Each sample volume was then raised to 250 μl with reaction buffer. Samples were incubated at room temperature and/or 37° for 45 minutes to allow peptide binding. The non-permeable cross-linker BS3 (Bis(sulfosuccinimidyl)suberate) was then added to a final concentration of 2.5 mM and samples were incubated at 4° C. for 30 minutes to minimize active internalization of BS3 (11.4 Å) (Pierce) (Partis, J. Prot. Chem. 293:263-277, 1983; Cox et al., J. Immunol. 145:1719-1726, 1990; and Knoller et al., J. Biol. Chem. 266:2795-2804, 1991). The reaction was quenched with 20 mM TRIS pH 7.5 for 15 minutes at room temperature. Cells were centrifuged at 4000 rpm for 10 minutes, lysed for 30 minutes on ice with 150 μl of RIPA buffer (50 mM Tris HCl pH7.4; 150 mM NaCl; 1 mM EDTA; 2 mM Na3VO4; 1 mM NaF; 1% NP-40; 0.25% Nadeoxycholate). […] Radioactivity was determined is every cell lysate with a Packard CobraII autogamma counter.

CC(C)C[C@@H](NC(=O)[C@@H](CCC(=O)O)NC(=O)[C@H](NC(=O)[C@H](NC(=O)[C@@H](Cc1ccc(O)cc1)NC(=O)[C@H](N)CCCNC(=N)N)[C@H](C)O)C(C)C)C(=O)N[C@H](C)C(N)=O [API-101.10, RYTVELA] (H-[dR][dY][dT][dV][dE][dL][dA]-NH2; N-terminus and C-terminus assumed)
inhibition of IL-1β-induced cGMP production (IL-1R/IL-1RacP [1]; brain tissues, 10^−6M): 85% | activity compared with Kineret (IL-1R/IL-1RacP [1]; data not shown): superior | IC50 (IL-1R/IL-1RacP [2]): 1.2 nM | displacement of radioactive IL-1α (IL-1R; I125-IL-1α 100 pM, 101.10 500 nM): unable to displace | displacement of 125I-API-101.10 by non-radioactive peptide (IL-1R; cross-linking, autoradiogram): displace almost all
